According to patent publication EP4147700A1, “N-(4-(AZAINDAZOL-6-YL)-PHENYL)-SULFONAMIDES FOR USE IN THE TREATMENT OF SICKLE CELL DISEASE” (LQT Therapeutics Inc., priority 2021, dated 2023):

How the values were obtained:
human CD34+ cells = settings: for F-cell (HbF+) frequency in enucleated GlyA+ cells / fold change in fetal hemoglobin expression: 14 days of differentiation; for F-cell (HbF+) frequency in enucleated GlyA+ cells: compared to control (DMSO) (FIG. 3A); for fold change in fetal hemoglobin expression: human CD34+ cells, compared to control (Vehicle as DMSO) (FIG. 3B)
Description: Mobilized CD34+ Human Stem/Progenitor Cells (HSPC) from healthy individuals were cultured for 3 days in a maintenance media consisting of X-VIVO 10 (VWR), 100 U/mL penicillin-streptomycin (ThermoFisher), 2mM L-glutamine (Fisher Scientific), 100 ng/mL Recombinant Human Stem Cell Factor (SCF), 100 ng/mL Recombinant Human Thrombopoietin (TPO) and 100 ng/mL Recombinant Human Flt-3 Ligand (Flt-3L) (all three from ThermoFisher). Cells were differentiated into erythroid cells using a three-step differentiation protocol developed by the Luc Douay group (Giarratana et al. 2005). In brief, CD34+ cells were cultured for 7 days in Step 1 media, consisting of Iscove's modified Dulbecco's medium (IMDM) (ThermoFisher) supplemented with 1X GlutaMAX, 100 U/mL penicillin-streptomycin (ThermoFisher), 5% human AB+plasma, 330 ug/mL human holo-transferrin, 10 ug/mL human insulin, 2 U/mL heparin, 1 uM/mL hydrocortisone (Sigma-Aldrich), 3 U/mL recombinant human erythropoietin (EPO) (ThermoFisher), 100 ng/mL SCF (ThermoFisher) and 5 ng/mL interleukin 3 (IL-3) (SigmaAldrich). On day 7, cells were transferred to step 2 media, a step 1 media without hydrocortisone and IL-3 and cultured for 3-4 days. Then cells were cultured for 8-9 days in step 3 media, a step 2 media without SCF. […] To determine the percentage of HbF-positive cells (F-cells), differentiated cells were fixed and permeabilized using a fixation kit (ThermoFisher). Cells were stained with PE-Cy7-conjugated anti-CD235 or PE-conjugated anti-CD71 antibodies. HbF levels were detected using Allophycocyanin (APC)-conjugated anti-HbF antibody (ThermoFisher). The acquisition of stained cells was performed on BD FACSCanto™ and the analysis was run using FlowJo™ Software.
After 14 days of differentiation, cells were fixed and stained with CD235a, CD71 and fetal hemoglobin antibodies for flowcytometry analysis.

[1] = tested on: CD34+ cells from patients with sickle cell disease; settings: for F-cell (HbF+) frequency in enucleated GlyA+ cells: CD34+ cells from patients with sickle cell disease, compared to control (DMSO) (FIG. 4A)
Description: To measure the effect of Compound 346 on fetal hemoglobin induction in CD34+ cells from patients with sickle cell disease, circulating CD34+ progenitor cells were isolated from total blood obtained from sickle cell patients, by performing a positive selection for CD34+ cells with magnetic beads (Miltenyi Biotec). Purified CD34+ cells were differentiated for 14 days. After differentiation, cells were fixed and stained with CD235a, CD71 and fetal hemoglobin antibodies for flowcytometry analysis.

FOXO3 = assay: SGK1 downstream pathway: Western blot of FOXO3 phosphorylation at Serine 315 in CD34+ cells; assay type: cell-based, human; settings: CD34+ cells from a healthy donor, day 11 of differentiation, 1-hour time point, densitometry (FIG. 5)
Description: (§1) To verify SGK1 target engagement by Compound 346, CD34+ cells from a healthy donor were exposed to Compound 346 at the indicated dose (µM), harvested and lysed at the indicated time points. Phosphorylation of SGK1 at threonine 256 (Thr256) was assessed by Western blot using antibody anti-pSGK1 (Thr256) (Thermofisher) and anti-SGK1 (Cell Signaling). Human CD34+ cells, cells were collected on Day 11 of differentiation then exposed to Compound 346. According to the time course, cells were collected and lysed using RIPA buffer mixed with a phosphatase and protease inhibitors cocktail (Thermofisher). Sample protein concentrations were measured with the Pierce […] (ThermoFisher). The α-tubulin antibody (Cell Signaling) served as an internal control. Immunoreactive proteins were visualized by using an ECL® (enhanced chemiluminescence) detection system (BioRad). Optical density was measured with ImageJ software (National Institutes of Health, Bethesda, MD) and the ratio of phospho-SGK1 to total SGK1 was calculated, normalized on α-tubulin, and plotted based on the densitometry measurements. […] Furthermore, SGK1 downstream pathway activation was verified by measuring phosphorylation of FOXO3 at Serine 315, a direct target of activated SGK1. Quantification of FOXO3 activation was assessed by Western Blot using antibodies anti-pFOXO3 (Ser315) and anti-FOXO3 (Cell Signaling). […]

sickle erythroid cells = assay: Sickling assay under hypoxia (ImageStream flow cytometry) of 21-day differentiated erythroid cells; assay type: cell-based, human; settings: cells derived from CD34+ cells of sickle patients, 21 days of differentiation, 4 hours at 2% oxygen, compared to vehicle, p < 0.01 (FIG. 6)
Description: To evaluate the effect of Compound 346 in sickle erythroid cells sickling, a sickling assay was conducted. […] Purified CD34+ cells were differentiated for 21 days. At the end of the differentiation, cells were incubated for 4 hours at 2% of oxygen in Hemox Buffer (Fisher Scientific) supplemented with 10mM Glutamine (Gibco) and 0.5% BSA (Sigma Aldrich). After exposure to hypoxia, cells were fixed with 25% of glutaraldehyde (Sigma Aldrich) and transferred to tubes for flowcytometry analysis, using a Amnis® ImageStream® flow cytometer to assess abnormal shaped cells. Cells were determined using RMS of brightfield image, and single cells using Area vs Aspect Ratio of brightfield image, and live cells were identified using a Live Dead NIR stain. Single living cells were analyzed using the following masking of the brightfield image: Skeleton (M1, Ch1, Thin), Object (M1, Ch1, Tight). Finally, the sickling factor was calculated using the following feature: Length_Skeleton (M1, CH1, Thin)/Width_(M1, Ch1, Tight). Cells with a sickle factor feature of 1.4 or higher were sickled. Cells with a sickle factor feature less than 1.4 were not sickled.

SGK1 = biological target: T1, SGK1 (Homo sapiens, UniProt O00141); assay: SGK1 target engagement: Western blot of SGK1 phosphorylation at Thr256 in CD34+ cells; assay type: cell-based; settings: CD34+ cells from a healthy donor, day 11 of differentiation, 1h after exposure (FIG. 5)
T1 construct: endogenous in cells; host or cells: Mobilized human CD34+ HSPC from a healthy donor, day 11 of erythroid differentiation
T1 sequence (O00141 1-431): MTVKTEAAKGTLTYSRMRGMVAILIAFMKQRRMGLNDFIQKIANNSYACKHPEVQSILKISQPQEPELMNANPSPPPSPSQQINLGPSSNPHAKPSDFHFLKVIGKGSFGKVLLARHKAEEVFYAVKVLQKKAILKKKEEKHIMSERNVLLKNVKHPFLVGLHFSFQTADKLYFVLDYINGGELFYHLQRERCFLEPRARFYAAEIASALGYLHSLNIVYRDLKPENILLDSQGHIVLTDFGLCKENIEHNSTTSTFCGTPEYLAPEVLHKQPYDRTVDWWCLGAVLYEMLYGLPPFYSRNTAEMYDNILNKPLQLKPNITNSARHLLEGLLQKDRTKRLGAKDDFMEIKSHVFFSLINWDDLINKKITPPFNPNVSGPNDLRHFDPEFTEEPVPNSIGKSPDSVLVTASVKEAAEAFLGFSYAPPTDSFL
Description: as §1

[2] = CD34+ HSPC from healthy individuals

| SMILES | F-cell (HbF+) frequency in enucleated GlyA+ cells (human CD34+ cells; [2]) | fold change in fetal hemoglobin expression (human CD34+ cells) | F-cell (HbF+) frequency in enucleated GlyA+ cells [1] | increase of HbF+ cells (HbF+ fold change to control) (human CD34+ cells; CD34+ HSPC from healthy individuals, 21 days of differentiation, compared to DMSO (FIG. 2B)) | frequency of F-cells (HbF+) (human CD34+ cells; CD34+ HSPC from healthy individuals, 21 days of differentiation, compared to vehicle (DMSO) (FIG. 2A)) | phosphorylation of FOXO3 at Serine 315 (FOXO3) | HbF+ fold change to control ([1]; CD34+ cells from sickle cell patients, 14 days of differentiation, compared to control (Vehicle as DMSO) (FIG. 4B)) | sickling of erythroid cells induced by hypoxia (sickle erythroid cells) | p-SGK1 (Thr256), ratio of phospho-SGK1 to total SGK1 (SGK1) |
| --- | --- | --- | --- | --- | --- | --- | --- | --- | --- |
| NC(=O)NO [Hydroxyurea, hydroxyurea, reference compound] | increases | 1,5 fold | increase |  |  |  |  |  |  |
| Cc1n[nH]c2nc(-c3ccc(NS(=O)(=O)c4cc(Cl)ccc4F)cc3)nc(OC3CCN(C(C)C)CC3)c12 [Compound 346] | increases | 1,5 fold | increasing | about 1.5 fold | increased | decrease | 1.5 fold | significantly protected from sickling | decrease |
